Experimental data taken from ChEMBL document CHEMBL1201862, “PubChem BioAssay data set” (2004).
Active and inactive are the calls of the source.

Experiments:
Orexin receptor type 2 [1] = target: T1, Orexin receptor type 2 (Homo sapiens, UniProt O43614); experiment: Counterscreen assay for antagonists of the orexin 1 receptor (OX1R; HCRTR1): Homogeneous Time Resolved Fluorescence (HTRF)-based cell-based dose response assay for antagonists of the orexin 2 receptor (OX2R; HCRTR2), run by assay provider.; format: functional
T1 sequence (O43614 whole entry): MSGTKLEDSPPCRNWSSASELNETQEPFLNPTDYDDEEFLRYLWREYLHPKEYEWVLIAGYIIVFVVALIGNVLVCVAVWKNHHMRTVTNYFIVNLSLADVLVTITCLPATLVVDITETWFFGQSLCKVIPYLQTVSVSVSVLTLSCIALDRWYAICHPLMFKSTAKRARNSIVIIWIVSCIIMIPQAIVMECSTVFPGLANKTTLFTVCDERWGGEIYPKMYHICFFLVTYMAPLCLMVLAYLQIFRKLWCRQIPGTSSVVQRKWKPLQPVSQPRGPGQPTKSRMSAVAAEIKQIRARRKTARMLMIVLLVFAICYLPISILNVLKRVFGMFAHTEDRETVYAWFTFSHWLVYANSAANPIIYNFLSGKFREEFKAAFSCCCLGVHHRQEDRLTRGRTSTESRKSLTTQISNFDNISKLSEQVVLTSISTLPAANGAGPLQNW

[2] = (§1) Counterscreen for antagonists of the orexin 1 receptor (OX1R; HCRTR1): Fluorescence-based cell-based high throughput dose response assay to identify antagonists of the parental CHO cell line. [Related pubchem assays (depositor defined):AID434989, AID435008, AID463079, AID485270, AID492963, AID492964, AID492965, AID493232, AID504699, AID504701]; format: functional
[3] = HEp-2 cell cytotoxicity, dose response, cytotoxicity control for RSV inhibitor project, HTS (AID 2410); format: functional; settings: human respiratory syncytial virus
[4] = target: T2, Orexin/Hypocretin receptor type 1 (Homo sapiens, UniProt O43613); experiment: Homogeneous Time Resolved Fluorescence (HTRF)-based cell-based high throughput dose response assay for antagonists of the orexin 1 receptor (OX1R; HCRTR1). [Related pubchem assays (depositor defined):AID434989, AID435008, AID463079, AID485270, AID492963, AID492964, AID492965, AID493232, AID504717, AID504718]; format: functional
T2 sequence (O43613 whole entry): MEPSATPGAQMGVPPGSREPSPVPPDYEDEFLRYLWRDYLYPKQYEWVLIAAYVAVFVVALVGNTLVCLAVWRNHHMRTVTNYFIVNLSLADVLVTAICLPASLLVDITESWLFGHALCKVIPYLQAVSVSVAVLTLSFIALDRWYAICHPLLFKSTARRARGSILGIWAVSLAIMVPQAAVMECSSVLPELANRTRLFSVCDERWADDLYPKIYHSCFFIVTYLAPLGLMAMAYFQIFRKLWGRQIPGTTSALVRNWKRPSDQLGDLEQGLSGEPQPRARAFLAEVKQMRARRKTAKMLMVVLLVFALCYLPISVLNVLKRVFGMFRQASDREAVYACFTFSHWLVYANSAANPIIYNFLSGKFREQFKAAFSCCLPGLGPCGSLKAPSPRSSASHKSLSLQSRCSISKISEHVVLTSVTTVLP

[5] = target: T2, Orexin/Hypocretin receptor type 1; experiment: Fluorescence-based cell-based high throughput dose response assay for antagonists of the orexin 1 receptor (OX1R; HCRTR1). [Related pubchem assays (depositor defined):AID434989, AID435008, AID463079, AID485270, AID492963, AID492964, AID492965, AID493232, AID504717, AID504718]; format: functional
CHO-K1 = experiment: as §1, with “Homogeneous time resolved fluorescence (HTRF)-based” for “Fluorescence-based”, “cell-based” for “cell-based high throughput”, “CHO-K1” for “CHO”; format: functional; settings: Cricetulus griseus
Orexin receptor type 2 [6] = target: T1, Orexin receptor type 2; experiment: Counterscreen assay for antagonists of the orexin 1 receptor (OX1R; HCRTR1): Fluorescence-based cell-based dose response assay for antagonists of the orexin 2 receptor (OX2R; HCRTR2), run by assay provider.; format: functional
[7] = target: Heat shock protein HSP 90-alpha (Homo sapiens, UniProt P07900); format: functional, organism-based
Genome polyprotein = Genome polyprotein (dengue virus type 2, UniProt P29990); experiment: Dengue-2 NS5 methyltransferase inhibitors, primary screen, biochemical, confirmation dose response (AID 588689); format: functional
Protein RecA = target: T3, Protein RecA (Mycobacterium tuberculosis, UniProt P9WHJ3); experiment: Fluorescence Cell-Free Homogeneous Dose Retest to Identify Inhibitors of RecA-Intein Splicing Activity. [Related pubchem assays (depositor defined):AID2097, AID2223, AID489010, AID492950]; format: functional
T3 sequence (P9WHJ3 whole entry): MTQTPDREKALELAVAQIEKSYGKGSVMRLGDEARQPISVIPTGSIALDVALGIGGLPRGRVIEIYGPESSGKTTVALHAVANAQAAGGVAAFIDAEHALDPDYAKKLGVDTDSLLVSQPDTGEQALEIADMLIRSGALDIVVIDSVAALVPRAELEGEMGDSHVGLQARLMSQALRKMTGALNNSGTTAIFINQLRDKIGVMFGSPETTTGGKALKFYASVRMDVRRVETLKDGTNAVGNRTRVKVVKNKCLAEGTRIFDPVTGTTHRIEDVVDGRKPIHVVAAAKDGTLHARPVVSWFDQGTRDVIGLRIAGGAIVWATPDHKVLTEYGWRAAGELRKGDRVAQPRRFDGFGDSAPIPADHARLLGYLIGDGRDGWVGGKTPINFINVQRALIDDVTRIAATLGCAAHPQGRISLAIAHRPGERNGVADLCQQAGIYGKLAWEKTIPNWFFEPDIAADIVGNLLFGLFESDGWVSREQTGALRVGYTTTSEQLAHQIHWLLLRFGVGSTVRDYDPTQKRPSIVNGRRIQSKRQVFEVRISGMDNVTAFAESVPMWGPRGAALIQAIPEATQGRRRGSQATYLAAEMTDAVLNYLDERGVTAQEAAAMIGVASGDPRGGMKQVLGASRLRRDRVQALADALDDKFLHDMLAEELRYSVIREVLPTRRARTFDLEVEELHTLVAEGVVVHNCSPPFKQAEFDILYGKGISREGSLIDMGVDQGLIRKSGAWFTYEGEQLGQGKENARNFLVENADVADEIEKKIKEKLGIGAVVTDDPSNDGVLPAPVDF

[8] = target: T4, Replicative DNA helicase DnaB (Mycobacterium tuberculosis, UniProt P9WMR3); experiment: DnaB intein splicing inhibitors, dose response, biochemical, cell-free fluorescence (AID 449749); format: functional
T4 sequence (P9WMR3 whole entry): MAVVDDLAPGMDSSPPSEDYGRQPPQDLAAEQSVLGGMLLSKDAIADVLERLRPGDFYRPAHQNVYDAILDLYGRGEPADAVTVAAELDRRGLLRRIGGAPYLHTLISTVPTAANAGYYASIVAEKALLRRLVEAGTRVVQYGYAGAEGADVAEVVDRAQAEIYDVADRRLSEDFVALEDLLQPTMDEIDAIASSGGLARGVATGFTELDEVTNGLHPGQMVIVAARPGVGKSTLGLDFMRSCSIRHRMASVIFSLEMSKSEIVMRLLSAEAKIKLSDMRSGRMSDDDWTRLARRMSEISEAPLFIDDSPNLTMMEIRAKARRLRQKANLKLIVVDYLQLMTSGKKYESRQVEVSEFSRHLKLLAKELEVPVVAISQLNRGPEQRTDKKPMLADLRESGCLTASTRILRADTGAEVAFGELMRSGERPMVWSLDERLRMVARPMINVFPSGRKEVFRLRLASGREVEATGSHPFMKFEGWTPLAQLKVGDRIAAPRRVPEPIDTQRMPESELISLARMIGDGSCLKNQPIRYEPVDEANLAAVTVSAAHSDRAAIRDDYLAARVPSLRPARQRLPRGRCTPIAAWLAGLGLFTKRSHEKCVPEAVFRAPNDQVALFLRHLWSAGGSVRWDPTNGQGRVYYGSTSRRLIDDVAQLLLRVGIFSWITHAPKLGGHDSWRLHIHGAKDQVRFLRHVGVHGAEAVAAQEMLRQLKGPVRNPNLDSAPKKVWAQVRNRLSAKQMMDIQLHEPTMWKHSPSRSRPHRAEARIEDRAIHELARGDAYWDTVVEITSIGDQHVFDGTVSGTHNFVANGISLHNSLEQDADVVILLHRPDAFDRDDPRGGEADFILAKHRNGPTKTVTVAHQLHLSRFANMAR

[9] = target: Ras and Rab interactor 1/Tyrosine-protein kinase ABL1 (Homo sapiens, UniProt P00519+Q13671); format: functional;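 further: biochemical TR-FRET dose-response test measuring inhibition of binding between Rin1 and Abl proteins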
[10] = cytotoxicity toward NIH3T3 fibroblasts, dose response, counter-screen, cell-based, ATP luminescence, mouse fibroblasts (AID 2010); format: functional;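 further: cells exposed to compound for about 90 hours before reading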
[11] = inhibitors of intracellular T. cruzi replication, confirmation, NIH3T3 host cells, beta-gal luminescence (AID 2044); format: functional, cell-based;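 further: intracellular parasites grown in NIH/3T3 mouse fibroblasts as host cells; luminescent beta-galactosidase reporter signal from transgenic T. cruzi replicating inside host cells; inhibitors lower the luminescence signal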

Sequence of Genome polyprotein (P29990 2492-3391 limits assumed): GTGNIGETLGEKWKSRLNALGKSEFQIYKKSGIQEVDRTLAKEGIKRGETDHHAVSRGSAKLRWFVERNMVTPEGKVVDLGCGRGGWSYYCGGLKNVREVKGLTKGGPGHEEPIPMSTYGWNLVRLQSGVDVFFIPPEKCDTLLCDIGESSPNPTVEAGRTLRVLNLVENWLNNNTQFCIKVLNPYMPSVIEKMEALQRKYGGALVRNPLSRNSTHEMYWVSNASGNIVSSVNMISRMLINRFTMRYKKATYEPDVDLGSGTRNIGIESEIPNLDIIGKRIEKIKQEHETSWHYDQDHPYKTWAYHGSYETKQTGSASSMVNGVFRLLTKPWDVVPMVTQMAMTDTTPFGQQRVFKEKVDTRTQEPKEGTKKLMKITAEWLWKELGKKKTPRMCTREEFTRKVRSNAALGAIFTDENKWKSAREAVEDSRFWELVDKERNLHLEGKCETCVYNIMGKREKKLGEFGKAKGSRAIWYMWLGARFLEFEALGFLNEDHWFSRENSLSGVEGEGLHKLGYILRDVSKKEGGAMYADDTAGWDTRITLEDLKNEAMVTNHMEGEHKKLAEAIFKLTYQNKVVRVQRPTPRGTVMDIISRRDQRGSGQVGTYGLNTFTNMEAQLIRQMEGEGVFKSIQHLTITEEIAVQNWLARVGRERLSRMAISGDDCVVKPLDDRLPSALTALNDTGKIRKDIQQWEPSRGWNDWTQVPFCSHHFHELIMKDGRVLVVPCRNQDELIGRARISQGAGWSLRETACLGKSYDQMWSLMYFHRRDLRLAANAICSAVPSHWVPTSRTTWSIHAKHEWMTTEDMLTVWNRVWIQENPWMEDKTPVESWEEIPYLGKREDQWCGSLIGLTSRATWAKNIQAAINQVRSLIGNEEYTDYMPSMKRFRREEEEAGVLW
Sequence of Ras and Rab interactor 1/Tyrosine-protein kinase ABL1 (P00519 whole entry): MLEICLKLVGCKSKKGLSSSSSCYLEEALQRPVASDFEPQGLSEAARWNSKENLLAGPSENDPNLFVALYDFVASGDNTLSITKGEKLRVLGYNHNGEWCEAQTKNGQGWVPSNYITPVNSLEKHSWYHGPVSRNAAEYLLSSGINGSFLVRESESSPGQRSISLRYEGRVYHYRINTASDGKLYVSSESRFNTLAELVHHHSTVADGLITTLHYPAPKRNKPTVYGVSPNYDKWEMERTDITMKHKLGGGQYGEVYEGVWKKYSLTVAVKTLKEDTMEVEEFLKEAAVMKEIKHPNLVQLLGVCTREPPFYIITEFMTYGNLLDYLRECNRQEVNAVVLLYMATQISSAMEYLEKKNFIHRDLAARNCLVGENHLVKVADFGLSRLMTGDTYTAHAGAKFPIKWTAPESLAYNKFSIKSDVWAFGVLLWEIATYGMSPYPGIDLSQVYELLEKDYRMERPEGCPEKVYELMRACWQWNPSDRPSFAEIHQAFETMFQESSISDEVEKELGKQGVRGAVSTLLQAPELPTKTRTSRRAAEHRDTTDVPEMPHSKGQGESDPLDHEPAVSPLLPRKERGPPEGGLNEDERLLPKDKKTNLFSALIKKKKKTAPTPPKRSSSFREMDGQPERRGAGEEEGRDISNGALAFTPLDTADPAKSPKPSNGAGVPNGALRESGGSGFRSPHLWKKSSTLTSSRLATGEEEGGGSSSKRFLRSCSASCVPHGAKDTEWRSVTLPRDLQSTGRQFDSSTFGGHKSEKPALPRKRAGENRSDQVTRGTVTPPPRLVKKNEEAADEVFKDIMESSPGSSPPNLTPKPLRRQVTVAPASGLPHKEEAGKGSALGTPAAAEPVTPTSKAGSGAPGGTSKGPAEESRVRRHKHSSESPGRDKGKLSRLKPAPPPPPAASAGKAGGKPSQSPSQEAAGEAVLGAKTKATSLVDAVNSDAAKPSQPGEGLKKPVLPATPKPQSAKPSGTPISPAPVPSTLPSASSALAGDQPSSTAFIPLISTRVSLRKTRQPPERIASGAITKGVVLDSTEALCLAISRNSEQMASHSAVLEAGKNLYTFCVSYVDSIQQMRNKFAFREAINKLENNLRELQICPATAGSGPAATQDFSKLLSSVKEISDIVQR
Sequence of Ras and Rab interactor 1/Tyrosine-protein kinase ABL1 (Q13671 whole entry): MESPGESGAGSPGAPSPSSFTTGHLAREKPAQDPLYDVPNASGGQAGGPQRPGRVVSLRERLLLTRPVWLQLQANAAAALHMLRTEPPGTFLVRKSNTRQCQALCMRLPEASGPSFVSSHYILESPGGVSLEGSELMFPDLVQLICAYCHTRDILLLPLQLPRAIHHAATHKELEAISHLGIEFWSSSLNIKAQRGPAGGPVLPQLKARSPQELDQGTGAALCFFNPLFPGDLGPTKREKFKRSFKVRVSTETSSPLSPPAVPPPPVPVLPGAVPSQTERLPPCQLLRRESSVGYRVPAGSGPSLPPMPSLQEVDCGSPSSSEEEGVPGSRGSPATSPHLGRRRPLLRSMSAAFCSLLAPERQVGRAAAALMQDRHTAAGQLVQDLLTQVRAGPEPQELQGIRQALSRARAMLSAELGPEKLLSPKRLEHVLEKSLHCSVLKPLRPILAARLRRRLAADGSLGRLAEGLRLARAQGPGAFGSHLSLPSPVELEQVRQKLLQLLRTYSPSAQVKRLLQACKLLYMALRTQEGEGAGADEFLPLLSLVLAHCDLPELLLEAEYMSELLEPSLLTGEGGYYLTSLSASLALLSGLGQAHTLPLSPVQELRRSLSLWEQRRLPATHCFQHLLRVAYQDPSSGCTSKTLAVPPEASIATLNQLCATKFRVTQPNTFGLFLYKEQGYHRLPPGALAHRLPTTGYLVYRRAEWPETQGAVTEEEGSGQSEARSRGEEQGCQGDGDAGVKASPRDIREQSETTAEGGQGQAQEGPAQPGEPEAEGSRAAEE

## COc1ccc(CN2CC[C@H]3C=CC[C@@H](C(=O)Nc4ccc(Cl)c(C(F)(F)F)c4)[C@H]3C2=O)cc1OC
Orexin receptor type 2 [1]
  IC50: > 50 µM (inactive)
[2]
  IC50: > 49.8 µM (inactive)
[3]
  CC50: 42.4 µM (active)
[4]
  IC50: 71 nM (active)
[5]
  IC50: 3.22 µM (active)
CHO-K1
  IC50: > 66.2 µM (inactive)
cells
  IC50: 23.6 µM (active)
Orexin receptor type 2 [6]
  IC50: > 88.8 µM (inactive)

## COc1ccc2c(c1)C=C(C(=O)NCc1ccc(Cl)cc1)CO2
[7]
  AC50: 69.4 µM (active)

## COC(=O)c1cccc(N2C(=O)C(Cl)=C(N3CCOCC3)C2=O)c1
Genome polyprotein
  IC50: 23.6 µM (active)
Protein RecA
  EC50: 1.93 µM (active)
[8]
  AC50: 4.2 µM (active)

## Cc1ccccc1CN1C[C@@H]2C[C@@H](c3ccc4nsnc4c3)N3CCC[C@@]23C1=O
[9]
  IC50: 34.1 µM (inactive)

## N=C(NOC(=O)c1ccc2ccccc2c1)c1ccccc1Cl
[10]
  EC50: 8.76 µM (active)
[11]
  EC50: 1.8 µM (active)
[7]
  AC50: 2.34 µM (active)
